What was measured:
[1] = test system: yellow nutsedge (Cyperus esculentus); assay: Test Example 1: foliar spray herbicide effect on yellow nutsedge in greenhouse pots; format: in vivo; settings: evaluated 25 days after treatment, level 0-10
Experimental: (§1) Evaluation of phytotoxicity against a crop was shown by “no” when almost no phytotoxicity was observed, “low” when a low level phytotoxicity was observed, “medium” when a medium level phytotoxicity was observed and “high” when a high level phytotoxicity was observed.
(§2) A plastic pot of 11 cm in diameter and 8 cm in depth was filled with field soil. A tuber of yellow nutsedge (Cyperus esculentus) was planted and grown in a greenhouse for 21 days.
(§3) An emulsion of Compound A-1 was prepared by sufficiently mixing 5 parts of Compound A-1, 6 parts of Sorpol 3005× (surfactant, produced by Toho Chemical) and 89 parts of xylene.
(§4) Each of • single use of an emulsion of Compound A-1, • single use of an formulation of Imazethapyr (commercial name: Pursuit, produced by American Cyanamid, containing 24% of imazethapyr), • single use of an formulation of Imazamox (commercial name: Raptur, produced by American Cyanamid, containing 12.1% of imazamox), • a mixed composition of an emulsion of Compound A-1 and an formulation of Imazethapyr, and • a mixed composition of an emulsion of Compound A-1 and an formulation of Imazamox, were diluted with water containing 1% Agri-dex (produced by Helena). Respective dilutions were uniformly sprayed from upper side onto foliages of yellow nutsedge grown as described above with a small sprayer such that the amounts of the active ingredients were the amounts shown in Table 4. Immediately after the treatment with the test compounds, seeds of soybean were sown.
(§5) After the treatment, they were raised in a greenhouse for 25 days and the effect against weeds was evaluated. In addition, after 14 days of the treatment, the phytotoxicity to soybean was evaluated.

[2] = test system: soybean; assay: Test Example 1: phytotoxicity to soybean sown immediately after treatment; format: in vivo; settings: evaluated after 14 days
Experimental: as §1, §2, §3
as §4, with “Respective dilutions were uniformly sprayed from upper side onto foliages of yellow nutsedge grown as described above with a small sprayer such that the amounts of the active ingredients were the amounts shown in Table 4. Immediately after the treatment with the test compounds, seeds of soybean were sown.” left out
as §5

CCc1cnc(C2=NC(C)(C(C)C)C(=O)N2)c(C(=O)O)c1 (stereo not drawn) [Imazethapyr, 5-ethyl-2-(4-isopropyl-4-methyl-5-oxo-2-imidazolin-2-yl)nicotinic acid]
Herbicide Effect yellow nutsedge ([1]; 20 g/ha active ingredient): 1
Herbicide Effect yellow nutsedge ([1]; 80 g/ha active ingredient): 2

COCc1cnc(C2=NC(C)(C(C)C)C(=O)N2)c(C(=O)O)c1 (stereo not drawn) [Imazamox, 2-(4-isopropyl-4-methyl-5-oxo-2-imidazolin-2-yl)-5-(methoxymethyl)nicotinic acid]
Herbicide Effect yellow nutsedge ([1]; 10 g/ha active ingredient): 1
Herbicide Effect yellow nutsedge ([1]; 40 g/ha active ingredient): 2
Phytotoxicity soybean ([2]; 10 g/ha active ingredient): no
Phytotoxicity soybean ([2]; 40 g/ha active ingredient): no
